Measurements as given in patent publication US20260209260A1, “VECTORIZED NHC IRIDIUM(III) COMPLEXES AND USE THEREOF IN PHOTODYNAMIC THERAPY AND/OR DIAGNOSTIC” (CENTRE NATIONAL DE LA RECHERCHE SCIENTIFIQUE, priority 2022, published 2026).
“And” between values parts separate entries of the source, which are not always exact repeats. Identical values can stand only once. Like-named read-outs stand apart in the source and are kept apart here.

Tests used:
[1] = tested on: NIH-3T3 fibroblast cells (non-tumor); assay: Cell viability assay (MTT), dark and blue light; type: cell-based, Murine; details: for Photosensitizing index (PI) NIH-3T3: dark vs blue light 458 nm
Outline: (§1)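 Cells seeded at 5,000–10,000/well, attached overnight, then exposed to complexes in DMSO (final 0.1% v/v) for 72 h in the dark, or for 8 h dark followed by 10 min irradiation and dark incubation to 72 h. MTT added 3–4 h at 37 °C; formazan dissolved in DMSO, read at 570 nm.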

[2] = tested on: MC3T3 osteoblast cells (non-tumor); assay: Cell viability assay (MTT), dark and blue light; type: cell-based, Murine; details: for Photosensitizing index (PI) MC3T3: dark vs blue light 458 nm
Outline: as §1

[3] = UV/Vis absorption spectra; type: physicochemical; details: room temperature, air-saturated CH2Cl2 or CH2Cl2/MeOH (1:1), 50 μM; ε in brackets, sh = shoulder
Protocol: UV/Vis absorption spectra were recorded at RT on solutions contained in quartz cuvettes (optical pathlength 1 cm, Hellma®) with a PerkinElmer® UV/VIS/NIR spectrophotometer Lambda 950 and a PerkinElmer® detector UV/VIS/NIR Accessory 2D Detector Module.

[4] = tested on: cancer cells (all tumor cell lines tested); assay: Cell viability assay (MTT), summary over the cancer cell lines tested; type: cell-based, Human
Protocol: (§2) Cells were grown in humidified incubators at 37° C. in 5% CO2. Murine MC3T3 osteoblast and NIH-3T3 fibroblast cells-used as non-tumor cell models-were cultured in a-MEM medium and DMEM medium supplemented with 10% fetal bovine serum (FBS) and 1% Penicillin/Streptomycin (P/S) antibiotics, respectively. Human T24 bladder, MGHU3 bladder, Scaber bladder, A549 lung, MCF7 breast, MiaPaCa2 pancreas cancer cells were cultured in DMEM medium supplemented with 10% FBS and 1% P/S antibiotics. […] Human Hela cervix and HepG2 liver cancer cells were cultured EMEM medium supplemented with 10% FBS and 1% P/S antibiotics.
(§3) MTT reagent (3-(4,5-dimethylthiazol-2-yl)-2,5-diphenyltetrazolium bromide) was used to determine cell death as originally described by Mosmann. Briefly, cells were seeded from 5,000 to 10,000 cells/well in 24-well plates (1 mL) depending on the cell type and allowed to attach overnight. The complexes were prepared in DMSO. The concentration of the complexes was calculated based on the elemental composition of the complexes determined by the elemental analyses. All cell viability experiments were carried out with a fixed concentration of 0.1% (v/v) DMSO. After 72 h of treatment, cells were incubated at 37° C. and 5% CO2 with 25 μL of MTT solution (5 mg/ml; Sigma-Aldrich) in 24-well plates for 3 to 4 h. After solubilization with 500 μL of DMSO, formazan was quantified spectrophotometrically with a microplate reader at 570 nm absorbance (ClarioSTAR, BMG LabTech). […] All the results were calculated from data obtained in at least three independent experiments performed in triplicate.
(§4) Two sets of experiments were conducted in parallel for each complex to be studied:
(§5) 1. The cells were incubated with the different complexes (in the dark) for 72 h.
(§6) 2. The cells were incubated for 8 h with the different complexes (in the dark), then irradiated for 10 min, followed by an incubation in the dark up to 72 h.

[5] = tested on: ASPC-1 pancreas cancer cells; assay: Cell viability assay (MTT), dark and blue light; type: cell-based, Human; details: for SI (vs MC3T3) ASPC-1 Blue / SI (vs NIH-3T3) ASPC-1 Blue: blue light 458 nm; for Photosensitizing index (PI) ASPC-1: dark vs blue light 458 nm
Protocol: as §2, §3, §4, §5, §6

A549 lung cancer cells = assay: Cell viability assay (MTT), dark and blue light; type: cell-based, Human; details: for SI (vs MC3T3) A549 Blue / SI (vs NIH-3T3) A549 Blue: blue light 458 nm; for Photosensitizing index (PI) A549: dark vs blue light 458 nm
Protocol: as §2, §3, §4, §5, §6

T24 bladder cancer cells = assay: Cell viability assay (MTT), dark and blue light; type: cell-based, Human; details: for SI (vs MC3T3) T24 Blue / SI (vs NIH-3T3) T24 Blue: blue light 458 nm; for Photosensitizing index (PI) T24: dark vs blue light 458 nm
Protocol: as §2, §3, §4, §5, §6

[6] = tested on: MiaPaCa2 pancreas cancer cells; assay: Cell viability assay (MTT), dark and blue light; type: cell-based, Human; details: for SI (vs MC3T3) MiaPaCa2 Blue / SI (vs NIH-3T3) MiaPaCa2 Blue: blue light 458 nm; for Photosensitizing index (PI) MiaPaCa2: dark vs blue light 458 nm
Protocol: as §2, §3, §4, §5, §6

[7] = Lipophilicity: octanol-water partition coefficient, shake-flask method
Outline: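 Octanol and water mutually pre-saturated for 24 h; compound ([…] stock in aqueous phase) partitioned against equal volume n-octanol, mixed 15 min, phases separated by centrifugation.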

[8] = Luminescence emission spectra and quantum yield; type: physicochemical; details: room temperature; reference POPOP in hexane or rhodamine B in ethanol
Outline: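 Spectrofluorometric fluorescence/phosphorescence emission spectra of the iridium(III) complexes recorded in CH2Cl2 at room temperature. Quantum yields by the Demas–Crosby relative method on solutions at RT, from integrated emission band areas versus a reference standard of known yield, corrected for solvent refractive index.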

[9] = Emission lifetime measurement; type: physicochemical
Outline: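 Emission lifetimes measured by time-correlated single-photon counting (0.5 ns time resolution), excitation from a D2 lamp and a 405 nm pulsed diode laser. Estimated error 5% on lifetime.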

[10] = POPOP in hexane, rhodamine B in ethanol; cited from earlier work
[11] = 8 h in the dark, blue light 458 nm 10 min, then dark up to 72 h, read-out: GI50 NIH-3T3 Blue
[12] = in the dark, 72 h, read-out: GI50 NIH-3T3 Dark
[13] = 8 h in the dark, blue light 458 nm 10 min, then dark up to 72 h, read-out: GI50 MC3T3 Blue
[14] = in the dark, 72 h, read-out: GI50 MC3T3 Dark
[15] = 8 h in the dark, blue light 458 nm 10 min, then dark up to 72 h, read-out: GI50 ASPC-1 Blue
[16] = in the dark, 72 h, read-out: GI50 ASPC-1 Dark
[17] = 8 h in the dark, blue light 458 nm 10 min, then dark up to 72 h, read-out: GI50 A549 Blue
[18] = in the dark, 72 h, read-out: GI50 A549 Dark
[19] = 8 h in the dark, blue light 458 nm 10 min, then dark up to 72 h, read-out: GI50 T24 Blue
[20] = in the dark, 72 h, read-out: GI50 T24 Dark
[21] = 8 h in the dark, blue light 458 nm 10 min, then dark up to 72 h, read-out: GI50 MiaPaCa2 Blue
[22] = in the dark, 72 h, read-out: GI50 MiaPaCa2 Dark

Row | SMILES | GI50 [1, 11] [nM] | Photosensitizing index (PI) NIH-3T3 [1] | GI50 [1, 12] [nM] | GI50 [2, 13] [nM] | Photosensitizing index (PI) MC3T3 [2] | GI50 [2, 14] [nM] | λmax (nm) ε (M^−1 · cm^−1) [3] | SI values, mean over cancer cells, dark [4] [fold] | SI values, median over cancer cells, dark [4] [fold] | GI50 [5, 15] [nM] | SI (vs MC3T3) ASPC-1 Blue [5] | SI (vs NIH-3T3) ASPC-1 Blue [5] | SI (vs MC3T3) ASPC-1 Dark [5] | SI (vs NIH-3T3) ASPC-1 Dark [5] | Photosensitizing index (PI) ASPC-1 [5] | GI50 [5, 16] [nM] | GI50 (A549 lung cancer cells; [17]) [nM] | SI (vs MC3T3) A549 Blue (A549 lung cancer cells) | SI (vs NIH-3T3) A549 Blue (A549 lung cancer cells) | SI (vs MC3T3) A549 Dark (A549 lung cancer cells) | further results
1 | CC(C)=CCC/C(C)=C/CC/C(C)=C/CSc1ccccc1C(=O)NCCCn1cc[n+]2[c]1[Ir-3]13([c]4ccccc4-c4ccc5ccccc5[n+]41)([c]1ccccc1-c1ccc4ccccc4[n+]13)[n+]1ccccc1-2.F[P-](F)(F)(F)(F)F [II-g] | 5100 | 0.8 | 4300 | 5900 | 1.0 | 5800 | 333 (20560), 438 (4735) nm (M^−1 · cm^−1) | 10.2 | 10.3 | 470 | 12.6 | 10.9 | 7.8 | 5.8 | 1.6 | 740 | 390 | 15.2 | 13.2 | 12.9 | selectivity for cancer cells over non-tumor cells, in words [4]: highest selectivity toward cancer cells compared to non-tumor cells; SI (vs NIH-3T3) A549 Dark (A549 lung cancer cells): 9.6; Photosensitizing index (PI) A549 (A549 lung cancer cells): 1.2; GI50 (A549 lung cancer cells; [18]): 450 nM; GI50 (T24 bladder cancer cells; [19]): 640 nM and 650 nM; SI (vs MC3T3) T24 Blue (T24 bladder cancer cells): 9.2; SI (vs NIH-3T3) T24 Blue (T24 bladder cancer cells): 8.0; SI (vs MC3T3) T24 Dark (T24 bladder cancer cells): 12.3; SI (vs NIH-3T3) T24 Dark (T24 bladder cancer cells): 9.1; Photosensitizing index (PI) T24 (T24 bladder cancer cells): 0.7; GI50 (T24 bladder cancer cells; [20]): 470 nM; GI50 [6, 21]: 250 nM; SI (vs MC3T3) MiaPaCa2 Blue [6]: 24.0; SI (vs NIH-3T3) MiaPaCa2 Blue [6]: 20.7; SI (vs MC3T3) MiaPaCa2 Dark [6]: 14.4; SI (vs NIH-3T3) MiaPaCa2 Dark [6]: 10.7; Photosensitizing index (PI) MiaPaCa2 [6]: 1.6; GI50 [6, 22]: 400 nM; Log P [7]: 1.95 ± 0.05
2 | COC(=O)c1ccc2[n+](c1)[Ir-3]13([c]4ccccc4-2)([c]2ccccc2-c2ccc(C(=O)OC)c[n+]21)[c]1n(CCCNC(=O)c2ccccc2SC/C=C(\C)CC/C=C(\C)CCC=C(C)C)cc[n+]1-c1cccc[n+]13.F[P-](F)(F)(F)(F)F [II-e] | 5200 | 2.3 | 12000 | 10100 | 1.1 | 11000 | 310 (sh) (24540), 363 (sh) (5975), 432 (5280) nm (M^−1 · cm^−1) | 4.1 | 4.1 | 1300 | 7.9 | 4.1 | 2.2 | 2.3 | 4.0 | 5100 | 690 | 14.6 | 7.5 | 2.9 | ΦP emission phosphorescence quantum yield [8]: 4.6%; τ1 emission lifetime [9]: 182 ns; SI (vs NIH-3T3) A549 Dark (A549 lung cancer cells): 3.2; Photosensitizing index (PI) A549 (A549 lung cancer cells): 5.5; GI50 (A549 lung cancer cells; [18]): 3800 nM; GI50 (T24 bladder cancer cells; [19]): 260 nM; SI (vs MC3T3) T24 Blue (T24 bladder cancer cells): 38.8; SI (vs NIH-3T3) T24 Blue (T24 bladder cancer cells): 20.0; SI (vs MC3T3) T24 Dark (T24 bladder cancer cells): 5.0; SI (vs NIH-3T3) T24 Dark (T24 bladder cancer cells): 5.5; Photosensitizing index (PI) T24 (T24 bladder cancer cells): 8.6; GI50 (T24 bladder cancer cells; [20]): 2200 nM; GI50 [6, 21]: 180 nM; SI (vs MC3T3) MiaPaCa2 Blue [6]: 57.7; SI (vs NIH-3T3) MiaPaCa2 Blue [6]: 29.7; SI (vs MC3T3) MiaPaCa2 Dark [6]: 5.6; SI (vs NIH-3T3) MiaPaCa2 Dark [6]: 6.1; Photosensitizing index (PI) MiaPaCa2 [6]: 11.2; GI50 [6, 22]: 2000 nM; Log P ([7]; n-octanol/water, shake-flask, mean of at least three determinations): 1.30 ± 0.02
3 | CCN(CC)c1ccc2c(-c3ccccc3C(=O)O)c3ccc(=[N+](CC)CC)cc-3oc2c1.[Cl-] [rhodamine B] | – | – | – | – | – | – | – | – | – | – | – | – | – | – | – | – | – | – | – | – | quantum yield of the reference standard [10]: 65%
